Source: US12030880B2, “Iminosulfanone compound as bromodomain protein inhibitor and pharmaceutical composition and medical use thereof” (CHIA TAI TIANQING PHARMACEUTICAL GROUP CO., LTD., priority 2018, dated 2024)

How the values were obtained:
BRD4 (BD1) = BRD4 (BD1) (Homo sapiens (Human), UniProt O60885); assay: In vitro BRD4 (BD1) enzymatic activity assay (HTRF); format: binding; conditions: GST-BRD4 (BD1, 44-168 aa)
Experimental: In the present application, IC50 values of the compounds in inhibiting BRD4 (BD1) enzyme binding reaction were determined by homogeneous time resolved fluorescence (HTRF). A compounds was serially diluted 5-fold with 100% DMSO starting from 0.2 mM (7 concentrations in total), and then 2 μL of the compound at each concentration was added to 48 μL of a reaction buffer (20 mM HEPES pH 7.5, 150 mM NaCl, 5 mM DTT, 0.005% Tween 20, and 100 μg/mL BSA) for dilution, and mixed well. 2.5 μL of the resulting mixture was added to a 384-well plate (OptiPlate-384, purchased from PerkinElmer), then 5 μL of GST-BRD4 (BD1, 44-168 aa) (final concentration: 1 nM) was added, and the resulting mixture was centrifuged, and fully mixed. 2.5 μL of a short peptide Biotin-AHA-SGRGK(Ac)GGK(Ac)GLGK(Ac)GGAK(Ac) RHRKV (final concentration: 100 nM) was then added to initiate the reaction (total reaction volume: 10 μL). The 384-well plate was placed in an incubator at 23° C. to react for 1 hour, and then 5 μL of Eu3+ cryptate-labled anti-GST antibody (purchased from Cisbio) and 5 μL of Streptavidin-XL-665 (purchased from Cisbio) were added to terminate the reaction. After being incubated in the incubator for another 1 hour, the fluorescence values (excited at 320 nm, emitted light at 665 nm and 620 nm being detected, and the ratio of the two being the enzyme binding signal) were read on Envision (purchased from PerkinElmer). The binding strength of each compound to BRD4 (BD1) protein was determined respectively at 7 concentrations, and the data were calculated using GraphPad Prism software to obtain the IC50 value of the compound.

BRD4 (BD2) = BRD4 (BD2) (Homo sapiens (Human), UniProt O60885); assay: In vitro BRD4 (BD2) enzymatic activity assay (HTRF); format: binding; conditions: GST-BRD4 (BD2, 349-460 aa)
Experimental: In the present application, IC50 values of the compounds in inhibiting BRD4 (BD2) enzyme binding reaction were determined by homogeneous time resolved fluorescence (HTRF). A compound was serially diluted 5-fold with 100% DMSO starting from 1 mM (7 concentrations in total), and then 2 μL of the compound at each concentration was added to 18 μL of a reaction buffer (20 mM HEPES pH 7.5, 150 mM NaCl, 5 mM DTT, 0.005% Tween 20, and 100 μg/mL BSA) for dilution. After being mixed well, 2 μL of the compound at each concentration was added to 48 μL of the above reaction buffer for dilution, and mixed well (final concentration of the compound in DMSO: 0.1%). 2.5 μL of the resulting mixture was added to a 384-well plate (OptiPlate-384, purchased from PerkinElmer), then 5 μL of GST-BRD4 (BD2, 349-460 aa) (final concentration: 2 nM) was added, and the resulting mixture was centrifuged, and fully mixed. 2.5 μL of a peptide Biotin-AHA-SGRGK(Ac)GGK(Ac)GLGK(Ac)GGAK(Ac) RHRKV (final concentration: 200 nM) was then added to initiate the reaction (total reaction volume: 10 μL). The 384-well plate was placed in an incubator at 23° C. to react for 1 hour, and then 5 μL of Eu3+ cryptate-labled anti-GST antibody (purchased from Cisbio) and 5 μL of Streptavidin-XL-665 (purchased from Cisbio) were added to terminate the reaction. After being incubated in the incubator for another 1 hour, the fluorescence values (excited at 320 nm, emitted light at 665 nm and 620 nm being detected, and the ratio of the two being the enzyme binding signal) were read on Envision (purchased from PerkinElmer). The binding strength of each compound to BRD4 (BD2) protein was determined respectively at 7 concentrations, and the data were calculated using GraphPad Prism software to obtain the IC50 value of the compound.

MV4-11 cells = assay: Cell proliferation activity assay in MV4-11; format: cell-based; conditions: Homo sapiens, inhibiting cell proliferation, 72 hours, Cell-Titer Blue
Experimental: (§1) Human acute lymphoblastic leukemia cell line MV4-11 cells were cultured in PRIM1640 medium plus 10% fetal bovine serum (FBS, purchased from Biological Industries, BI) and 1% penicillin/streptomycin double antibody (P/S, purchased from Life Technology) at 37° C. with 5% CO2. On the day before the compound test, MV4-11 cells were spread in a 96-well plate (purchased from Corning) at a concentration of 8000 cells/195 μL/well. After 24 hours, the compound was serially diluted 4-fold with 100% DMSO starting from 10 mM (9 concentrations in total), and then 2 μL of the compound at each concentration was added to 48 μL of PRIM1640 medium for dilution. 5 μL of the diluted compound at each concentration was added to the wells spread with the cell suspension, and the compound and cells were co-incubated in a cell incubator for 72 hours (3 days). Then the mixture was added with 35 μL of Cell-Titer Blue reagent (purchased from Promega) and incubated for another 4 hours. The fluorescence values (excited at 560 nm, detected at 590 nm) were then read on Flexstation III, and the data were calculated using GraphPad Prism software to give IC50 value of the compound in inhibiting cell proliferation.

Kasumi-1 cells = assay: Cell proliferation activity assay in Kasumi-1; format: cell-based; conditions: Homo sapiens, inhibiting cell proliferation, 72 hours, Cell-Titer Blue
Experimental: as §1, with “myeloblastic” for “lymphoblastic”, “Kasumi-1” for “MV4-11”, “20%” for “10%”, “5000” for “8000”

[1] = Animal pharmacokinetic study on compounds; format: in vivo; conditions: rat, po; male rats, single intragastric administration, 5 mg/kg, plasma
Experimental: Three healthy adult male rats that obtained from Beijing Vital River Laboratory Animal Technology Co., Ltd were used for the animal pharmacokinetic experiment. A compound was suspended in 2% absolute ethanol, 5% tween 80, 20% polyethylene glycol 400, and 73% (5% hydroxypropylmethyl cellulose in water) (V/V/V/V) at a concentration of 1 mg/mL. The administration volume was 5 mL/kg, and animals were treated with a single intragastric administration at a dose of 5 mg/kg. Animals were fasted overnight prior to the experiment, and the fasting time was from 10 hours before administration to 4 hours after administration. Blood was sampled at 0.25, 0.5, 1, 2, 4, 6, 8 and 24 hours after administration. Animals were lightly anesthetized with isoflurane, and approximately 0.4 mL of whole blood was collected from the orbital venous plexus using a glass blood collection tube, and placed in a heparin anticoagulation tube. The sample was centrifuged at 4200 rpm for 5 minutes at 4° C., and then the plasma was transferred to a centrifuge tube and stored at −80° C. until analyzed. In the plasma sample analysis, test compounds and internal standards (warfarin or propranolol) were extracted from rat plasma by acetonitrile protein precipitation, and the extracts were analyzed by LC/MS/MS. The measured plasma concentration-time data of the individual animals were analyzed using a non-compartmental model of WinNonlin (version no. 5.2.1; Pharsight) software to give pharmacokinetic parameters as shown in Table 3 below: the maximum (peak) plasma drug concentration Cmax; the time to peak Tmax; the half-life T1/2 and the area under the plasma concentration-time curve extrapolated to infinity AUC0-inf.

Row | Structure (SMILES) | IC50 (BRD4 (BD1)) [nM] | IC50 (BRD4 (BD2)) [nM] | IC50 (MV4-11 cells) [nM] | IC50 (Kasumi-1 cells) [nM] | AUC(0-inf) [1] [ng·h/mL] | Cmax [1] [ng/mL] | Tmax [1] [h] | half-life [1] [h]
1 | Cn1cc(-c2cc(N=S(C)(C)=O)cnc2Oc2ccc(F)cc2F)c2cc[nH]c2c1=O [Example 4, 4-{2-(2,4-difluorophenoxy)-5-{[dimethyl(oxo)-λ^6-sulfanylidene]amino}-pyridin-3-yl}-6-methyl-1,6-dihydro-7H-pyrrolo[2,3-c]pyridin-7-one] | 0.93 | 0.35 | 8.3 | 4.4 | 2300 | 459 | 0.83 | 2.94
2 | Cn1cc(-c2cc(N=S(C)(C)=O)ccc2Oc2ccc(F)cc2F)c2cc[nH]c2c1=O [Example 5, 4-{2-(2,4-difluorophenoxy)-5-{[dimethyl(oxo)-λ^6-sulfanylidene]amino}phenyl}-6-methyl-1,6-dihydro-7H-pyrrolo[2,3-c]pyridin-7-one] | 4.8 | 0.66 | 9.8 | 15.4 | 2690 | 610 | 1 | 2.9
3 | CCNC(=O)c1cc2c(-c3cc(N=S(C)(C)=O)cnc3Oc3c(C)cc(F)cc3C)cn(C)c(=O)c2[nH]1 [Example 16, 4-{5-{[dimethyl(oxo)-λ^6-sulfanylidene]amino}-2-(4-fluoro-2,6-dimethylphenoxy)pyridin-3-yl}-N-ethyl-6-methyl-7-oxo-6,7-dihydro-1H-pyrrolo[2,3-c]pyridine-2-carboxamide] | 86.4 | 0.4 | 120 | 20.7 | – | – | – | –
4 | Cn1cc(-c2nc(N=S(C)(C)=O)ccc2Oc2ccc(F)cc2F)c2cc[nH]c2c1=O [Example 18, 4-{3-(2,4-difluorophenoxy)-6-{[dimethyl(oxo)-λ^6-sulfanylidene]amino}-pyridin-2-yl}-6-methyl-1,6-dihydro-7H-pyrrolo[2,3-c]pyridin-7-one] | – | – | 3.14 | 1.56 | – | – | – | 5.25
5 | Cn1cc(-c2cc(N=S(C)(C)=O)ncc2Oc2ccc(F)cc2F)c2cc[nH]c2c1=O [Example 19, 4-{5-(2,4-difluorophenoxy)-2-{[dimethyl(oxo)-λ^6-sulfanylidene]amino}-pyridin-4-yl}-6-methyl-1,6-dihydro-7H-pyrrolo[2,3-c]pyridin-7-one] | 7.3 | 0.61 | 54 | 7.37 | – | – | – | –
6 | Cc1cccc(Cl)c1Oc1ncc(N=S(C)(C)=O)cc1-c1cn(C)c(=O)c2[nH]ccc12 [Example 20, 4-{2-(2-chloro-6-methylphenoxy)-5-{[dimethyl(oxo)-λ^6-sulfanylidene]amino}-pyridin-3-yl}-6-methyl-1,6-dihydro-7H-pyrrolo[2,3-c]pyridin-7-one] | 12.9 | 0.27 | 75 | 9.25 | – | – | – | –
7 | CCNC(=O)c1cc2c(-c3cc(N=S(C)(C)=O)cnc3Oc3c(C)cccc3Cl)cn(C)c(=O)c2[nH]1 [Example 21, 4-{2-(2-chloro-6-methylphenoxy)-5-{[dimethyl(oxo)-λ^6-sulfanylidene]amino}-pyridin-3-yl}-N-ethyl-6-methyl-7-oxo-6,7-dihydro-1H-pyrrolo[2,3-c]pyridine-2-carboxamide] | 10.7 | 0.13 | 138 | 18 | – | – | – | –
